According to patent publication US20090099140A1, “20-Alkyl, Gemini Vitamin D3 Compounds and Methods of Use Thereof” (BioXell S.p.A., priority 2005, published 2009):

Experiments:
female C57BL/6 mice = experiment: Determination of maximum tolerated dose (MTD), highest oral dose without hypercalcemia (serum calcium); format: in vivo; conditions: eight week-old female C57BL/6 mice, p.o. daily for four days in miglyol; highest dose without hypercalcemia (serum calcium >10.7 mg/dl) on day five
Experimental: (§1) The maximum tolerated dose of the vitamin D3 compounds of the invention were determined in eight week-old female C57BL/6 mice (3 mice/group) dosed orally (0.1 ml/mouse) with various concentrations of Vitamin D3 analogs daily for four days. Analogs were formulated in miglyol for a final concentration of 10, 30, 100 and 300 μg/kg when given at 0.1 ml/mouse p.o. daily. Blood for serum calcium assay was drawn by tail bleed on day five, the final day of the study. Serum calcium levels were determined using a colorimetric assay (Sigma Diagnostics, procedure no. 597). The highest dose of analog tolerated without inducing hypercalcemia (serum calcium >10.7 mg/dl) was taken as the maximum tolerated does (MTD).

IFN-γ production = IFN-γ production by allogeneic T cell activation in the mixed leukocyte response (MLR); format: cell-based; conditions: MLR of allogeneic PBMC from 2 different donors, 5 days, IFN-γ by ELISA, 50% inhibition of IFN-γ production
Experimental: Immature dendritic cells (DC) were prepared as described in Romani, N. et al., J. Immunol. Meth. 196:137. IFN-γ production by allogeneic T cell activation in the mixed leukocyte response (MLR) was determined as described in Penna, G., et al., J. Immunol., 164: 2405-2411 (2000).
Briefly, peripheral blood mononuclear cells (PBMC) were separated from buffy coats by Ficoll gradient and the same number (3×105) of allogeneic PBMC from 2 different donors were co-cultured in 96-well flat-bottom plates. After 5 days, IFN-γ production in the MLR assay was measured by ELISA and the results expressed as amount (nM) of test compound required to induce 50% inhibition of IFN-γ production (IC50) (Table 1).

[1] = Determination of maximum tolerated dose (MTD), highest oral dose without hypercalcemia (serum calcium); format: in vivo; conditions: mouse, in vivo, po; eight week-old female C57BL/6 mice, p.o. daily for four days in miglyol; highest dose without hypercalcemia (serum calcium >10.7 mg/dl) on day five; read-out: MTD (mice)
Experimental: as §1

| Compound | MTD (mice) (female C57BL/6 mice) | IC50 (IFN-γ production) | MTD at 4 days [1] | IC50 (IFN-γ production; 120 h) |
| --- | --- | --- | --- | --- |
| 1α-Fluoro-25-hydroxy-20S-20-(4-hydroxy-5,5,5-trideutero-4-trideuteromethyl-pentyl)-23E-ene-26,27-hexafluorocholecalciferol [Compound 21] | 0.01 mg/kg | 7.1 pM | – | – |
| C=C1/C(=C\C=C2/CCC[C@@]3(C)C2CC[C@@H]3[C@](C)(CC#CC(O)(C(F)(F)F)C(F)(F)F)CCCC(C)(C)O)CC(O)C[C@@H]1F (stereo partly drawn) [Compound 13, (20S)-1α-Fluoro-25-hydroxy-20-(5,5,5-trifluoro-4-hydroxy-4-trifluoromethyl-pent-2-ynyl)-cholecalciferol] | – | – | 0.1 mg/kg | 358 pM |
| C=C1/C(=C\C=C2/CCC[C@@]3(C)C2CC[C@@H]3[C@](C)(C/C=C\C(O)(C(F)(F)F)C(F)(F)F)CCCC(C)(C)O)CC(O)C[C@@H]1F (stereo partly drawn) [Compound 14, (20S)-1α-Fluoro-25-hydroxy-20-[(2Z)-5,5,5-trifluoro-4-hydroxy-4-trifluoromethyl-pent-2-enyl]-cholecalciferol] | – | – | 0.1 mg/kg | 1010 pM |
| C=C1/C(=C\C=C2/CCC[C@@]3(C)C2CC[C@@H]3[C@](C)(C/C=C/C(O)(C(F)(F)F)C(F)(F)F)CCCC(C)(C)O)CC(O)C[C@@H]1F (stereo partly drawn) [Compound 15, (20S)-1α-Fluoro-25-hydroxy-20-[(2E)-5,5,5-trifluoro-4-hydroxy-4-trifluoromethyl-pent-2-enyl]-cholecalciferol] | – | – | 0.01 mg/kg | 119 pM |
| [2H]C([2H])([2H])C(O)(CCC[C@@](C)(C/C=C\C(O)(C(F)(F)F)C(F)(F)F)[C@H]1CCC2/C(=C/C=C3/C[C@@H](O)C[C@H](O)C3=C)CCC[C@@]21C)C([2H])([2H])[2H] (stereo partly drawn) [Compound 16, 1,25-Dihydroxy-20S-20-(4-hydroxy-5,5,5-trideutero-4-trideuteromethyl-pentyl)-23Z-ene-26,27-hexafluorocholecalciferol] | – | – | 0.0003 mg/kg | 11.1 pM |
| [2H]C([2H])([2H])C(O)(CCCC(C)(C/C=C\C(O)(C(F)(F)F)C(F)(F)F)[C@H]1CCC2/C(=C/C=C3C[C@@H](O)C[C@H](O)C3)CCC[C@@]21C)C([2H])([2H])[2H] (stereo partly drawn) [Compound 17, 1,25-Dihydroxy-20S-20-(4-hydroxy-5,5,5-trideutero-4-trideuteromethyl-pentyl)-23Z-ene-26,27-hexafluoro-19-nor-cholecalciferol] | – | – | 0.0003 mg/kg | 2.5 pM |
| [2H]C([2H])([2H])C(O)(CCCC(C)(C/C=C\C(O)(C(F)(F)F)C(F)(F)F)[C@H]1CCC2/C(=C/C=C3/C[C@@H](O)C[C@H](F)C3=C)CCC[C@@]21C)C([2H])([2H])[2H] (stereo partly drawn) [Compound 18, 1α-Fluoro-25-hydroxy-20S-20-(4-hydroxy-5,5,5-trideutero-4-trideuteromethyl-pentyl)-23Z-ene-26,27-hexafluorocholecalciferol] | – | – | 0.1 mg/kg | 219 pM |
| [2H]C([2H])([2H])C(O)(CCC[C@@](C)(CC#CC(O)(C(F)(F)F)C(F)(F)F)[C@H]1CCC2/C(=C/C=C3/C[C@@H](O)C[C@H](F)C3=C)CCC[C@@]21C)C([2H])([2H])[2H] (stereo partly drawn) [Compound 24, 1α-Fluoro-25-hydroxy-20S-20-(4-hydroxy-5,5,5-trideutero-4-trideuteromethyl-pentyl)-23-yne-26,27-hexafluorocholecalciferol] | – | – | 0.01 mg/kg | 21.3 pM |
| [2H]C([2H])([2H])C(O)(CCC[C@](C)(C/C=C\C(O)(C(F)(F)F)C(F)(F)F)[C@H]1CCC2/C(=C/C=C3/C[C@@H](O)C[C@H](O)C3=C)CCC[C@@]21C)C([2H])([2H])[2H] (stereo partly drawn) [Compound 25, 1,25-Dihydroxy-20R-20-(4-hydroxy-5,5,5-trideutero-4-trideuteromethyl-pentyl)-23Z-ene-26,27-hexafluorocholecalciferol] | – | – | 0.003 mg/kg | 1 pM |
